Consider 3 compounds from US20250145566A1, “PHENETHYLAMINE DERIVATIVES, COMPOSITIONS, AND METHODS OF USE” (Cybin IRL Limited, priority 2022, published 2025).

Test [1] addresses T1, 5-HT2C (h) (Homo sapiens, UniProt P28335).
T1 construct: expressed in transfected cells; host or cells: HEK-293 cells
T1 sequence (P28335 33-458): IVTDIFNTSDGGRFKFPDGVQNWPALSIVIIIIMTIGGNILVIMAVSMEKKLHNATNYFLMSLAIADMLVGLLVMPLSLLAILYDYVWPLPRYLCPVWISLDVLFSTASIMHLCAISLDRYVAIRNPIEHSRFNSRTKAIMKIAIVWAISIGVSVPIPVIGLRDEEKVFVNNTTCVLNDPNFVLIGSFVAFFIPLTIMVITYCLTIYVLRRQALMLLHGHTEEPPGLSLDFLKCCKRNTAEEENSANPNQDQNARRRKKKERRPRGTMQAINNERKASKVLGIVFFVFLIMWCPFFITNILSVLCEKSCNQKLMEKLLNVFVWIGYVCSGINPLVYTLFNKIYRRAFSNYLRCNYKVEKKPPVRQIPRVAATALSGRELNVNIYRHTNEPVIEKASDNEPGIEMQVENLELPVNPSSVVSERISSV
Put plainly: 5-HT2C (h) agonist radioligand [125I](±)DOI binding. The conditions noted are these: at 10 μM. As to the method: (§1) Samples were then analyzed as described above.

For test [2], the target named is T2, norepinephrine transporter (h) (Homo sapiens, UniProt P23975).
T2 construct: expressed in transfected cells; host or cells: CHO cells
Put plainly: norepinephrine transporter (h) binding, [3H]nisoxetine. Conditions: at 10 μM; table calls these values “No Binding”.

Test [3] addresses T3, Dopamine transporter (Homo sapiens, UniProt Q01959). In words: Dopamine transporter uptake (h). The format is cell-based.
Test [4] deals with T4, Norepinephrine transporter (Homo sapiens, UniProt P23975). Put plainly: Norepinephrine transporter uptake (h). Format: cell-based.
Test [5] deals with T5, 5-HT2B (h) (Homo sapiens, UniProt P41595).
T5 construct: expressed in transfected cells; host or cells: CHO cells
In words: 5-HT2B (h) agonist effect, IP1 HTRF functional assay. Format: cell-based.

The target in test [6] is T1, 5-HT2C (h). In words: 5-HT2C (h) agonist effect, IP1 HTRF functional assay. The format is cell-based. A general note: TR-FRET usually uses a lanthanide donor and a delayed reading to cut background.
Test [7] addresses T6, 5-HT2A (h) (Homo sapiens, UniProt P28223).
T6 construct: expressed in transfected cells; host or cells: HEK-293 cells
Put plainly: 5-HT2A (h) agonist radioligand [125I](±)DOI binding. Conditions: at 10 μM.

Another test deals with T7, dopamine transporter (h) (Homo sapiens, UniProt Q01959).
T7 construct: expressed in transfected cells; host or cells: CHO cells
Put plainly: dopamine transporter (h) binding, [3H]BTCP. The conditions noted are these: at 10 μM; table calls these values “No Binding”.

The target of test [8] is T8, 5-HT transporter (h) (Homo sapiens, UniProt P31645).
T8 construct: expressed in transfected cells; host or cells: CHO cells
In words: 5-HT transporter (h) binding, [3H]imipramine. The conditions noted are these: at 10 μM.

For the next test, the target named is T9, Serotonin transporter (Rattus norvegicus, UniProt P31652).
T9 construct: from tissue
Put plainly: Serotonin transporter uptake, rat brain synaptosomes. Format: biochemical.

The target of test [9] is T5, 5-HT2B (h). In words: 5-HT2B (h) agonist radioligand [125I](±)DOI binding. The conditions noted are these: at 10 μM. The method, then: as §1
Test [10] has as its target T6, 5-HT2A (h). Put plainly: 5-HT2A (h) agonist effect, IP1 HTRF functional assay. The format is cell-based.
For another test, the target named is T10, 5-HT2A receptor (Homo sapiens, UniProt P28223).
T10 construct: host or cells: HEK293 (ATCC CRL-1573), transient, membranes
Conditions: literature value (Rickli et al. 2016); cited from earlier work.

Test [11] deals with T4, Norepinephrine transporter. Conditions: variable numbers in the literature, racemic, cited from earlier work.
The target in test [12] is T6, 5-HT2A (h). The conditions noted are these: read-out: Binding 5-HT2A Ki; antagonist radioligand; literature, racemic; cited from earlier work.
For test [13], the target named is T3, Dopamine transporter. The conditions noted are these: variable numbers in the literature, racemic, cited from earlier work.
In test [14] the target is T8, 5-HT transporter (h). The conditions noted are these: read-out: Binding SERT Ki; literature, racemic; cited from earlier work.
Test [15] addresses T2, norepinephrine transporter (h). Conditions: read-out: Binding NET Ki; literature, racemic; cited from earlier work.

Read-outs that look alike come from different tables or passages of the source.

T4 sequence (P23975 whole entry): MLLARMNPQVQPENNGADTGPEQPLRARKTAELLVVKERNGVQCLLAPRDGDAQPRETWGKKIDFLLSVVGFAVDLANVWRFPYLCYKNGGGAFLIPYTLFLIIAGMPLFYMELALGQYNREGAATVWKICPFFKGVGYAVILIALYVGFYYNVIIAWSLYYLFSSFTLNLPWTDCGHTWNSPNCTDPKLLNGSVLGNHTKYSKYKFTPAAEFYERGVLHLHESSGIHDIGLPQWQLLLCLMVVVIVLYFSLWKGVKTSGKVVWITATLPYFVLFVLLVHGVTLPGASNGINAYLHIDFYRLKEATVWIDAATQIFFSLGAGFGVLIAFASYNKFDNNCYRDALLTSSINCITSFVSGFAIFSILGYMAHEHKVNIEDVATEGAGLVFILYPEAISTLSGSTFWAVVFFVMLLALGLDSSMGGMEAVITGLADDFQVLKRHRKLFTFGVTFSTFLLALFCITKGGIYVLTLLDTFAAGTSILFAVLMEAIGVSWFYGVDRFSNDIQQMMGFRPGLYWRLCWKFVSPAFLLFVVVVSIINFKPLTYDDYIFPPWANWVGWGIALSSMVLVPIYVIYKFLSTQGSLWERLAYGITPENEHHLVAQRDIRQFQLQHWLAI
T3 sequence (Q01959 whole entry): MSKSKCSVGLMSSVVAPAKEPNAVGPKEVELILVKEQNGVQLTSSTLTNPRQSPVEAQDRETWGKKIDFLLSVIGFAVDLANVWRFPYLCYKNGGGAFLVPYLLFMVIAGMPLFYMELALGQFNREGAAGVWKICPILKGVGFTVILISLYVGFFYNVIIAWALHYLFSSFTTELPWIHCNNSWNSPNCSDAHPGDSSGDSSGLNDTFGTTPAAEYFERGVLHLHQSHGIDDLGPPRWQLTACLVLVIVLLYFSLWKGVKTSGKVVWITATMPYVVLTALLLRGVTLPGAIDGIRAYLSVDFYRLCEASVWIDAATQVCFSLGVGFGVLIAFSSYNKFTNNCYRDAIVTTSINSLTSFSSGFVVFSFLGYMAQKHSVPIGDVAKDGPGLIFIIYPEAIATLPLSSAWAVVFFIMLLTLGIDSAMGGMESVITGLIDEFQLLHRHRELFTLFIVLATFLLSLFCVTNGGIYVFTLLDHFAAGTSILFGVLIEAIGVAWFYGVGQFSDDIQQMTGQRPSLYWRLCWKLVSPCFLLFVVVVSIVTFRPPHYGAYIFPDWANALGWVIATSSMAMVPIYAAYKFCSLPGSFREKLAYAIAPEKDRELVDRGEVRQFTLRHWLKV
T6 sequence (P28223 whole entry): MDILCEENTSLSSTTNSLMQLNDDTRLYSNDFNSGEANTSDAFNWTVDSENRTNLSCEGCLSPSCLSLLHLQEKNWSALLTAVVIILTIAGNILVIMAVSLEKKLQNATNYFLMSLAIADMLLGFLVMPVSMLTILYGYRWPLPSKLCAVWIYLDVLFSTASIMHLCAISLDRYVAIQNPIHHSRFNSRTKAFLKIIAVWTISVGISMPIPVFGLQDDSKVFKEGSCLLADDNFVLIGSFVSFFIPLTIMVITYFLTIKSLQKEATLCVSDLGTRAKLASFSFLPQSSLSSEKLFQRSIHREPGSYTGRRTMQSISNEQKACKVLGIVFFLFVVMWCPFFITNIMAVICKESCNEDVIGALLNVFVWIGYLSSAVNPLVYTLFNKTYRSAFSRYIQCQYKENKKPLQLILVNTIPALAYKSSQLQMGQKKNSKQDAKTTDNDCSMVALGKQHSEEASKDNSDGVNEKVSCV
T9 sequence (P31652 whole entry): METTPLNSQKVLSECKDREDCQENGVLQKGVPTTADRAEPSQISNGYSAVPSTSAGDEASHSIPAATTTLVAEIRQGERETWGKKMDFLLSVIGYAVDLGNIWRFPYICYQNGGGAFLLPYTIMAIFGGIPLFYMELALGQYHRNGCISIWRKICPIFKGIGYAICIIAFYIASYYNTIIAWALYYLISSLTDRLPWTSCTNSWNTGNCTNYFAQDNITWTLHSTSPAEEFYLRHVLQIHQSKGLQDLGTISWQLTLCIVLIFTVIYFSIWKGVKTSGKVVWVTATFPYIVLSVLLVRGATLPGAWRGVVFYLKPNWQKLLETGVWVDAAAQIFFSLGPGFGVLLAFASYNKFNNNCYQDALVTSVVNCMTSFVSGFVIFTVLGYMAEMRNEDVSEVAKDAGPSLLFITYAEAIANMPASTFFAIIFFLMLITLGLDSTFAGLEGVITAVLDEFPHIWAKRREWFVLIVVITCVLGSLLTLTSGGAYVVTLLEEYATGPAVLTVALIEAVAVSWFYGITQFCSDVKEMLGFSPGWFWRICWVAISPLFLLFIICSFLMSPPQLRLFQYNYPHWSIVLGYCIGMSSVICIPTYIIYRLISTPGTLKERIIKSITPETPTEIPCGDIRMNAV
T5 sequence (P41595 whole entry): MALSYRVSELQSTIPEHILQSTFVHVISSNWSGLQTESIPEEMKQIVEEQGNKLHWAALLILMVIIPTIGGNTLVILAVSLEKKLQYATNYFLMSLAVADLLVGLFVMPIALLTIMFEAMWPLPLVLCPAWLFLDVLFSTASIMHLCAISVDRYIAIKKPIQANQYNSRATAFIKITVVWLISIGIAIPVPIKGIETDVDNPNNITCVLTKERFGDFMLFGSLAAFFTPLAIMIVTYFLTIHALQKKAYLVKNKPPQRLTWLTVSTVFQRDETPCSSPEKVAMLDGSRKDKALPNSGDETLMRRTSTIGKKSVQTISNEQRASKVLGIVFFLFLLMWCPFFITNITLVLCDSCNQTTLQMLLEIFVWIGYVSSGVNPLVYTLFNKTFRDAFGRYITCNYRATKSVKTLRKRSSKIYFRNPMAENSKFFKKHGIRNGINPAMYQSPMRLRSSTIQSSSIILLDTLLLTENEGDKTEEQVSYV
T2 sequence (P23975 whole entry): as the sequence (P23975 whole entry) above
T8 sequence (P31645 whole entry): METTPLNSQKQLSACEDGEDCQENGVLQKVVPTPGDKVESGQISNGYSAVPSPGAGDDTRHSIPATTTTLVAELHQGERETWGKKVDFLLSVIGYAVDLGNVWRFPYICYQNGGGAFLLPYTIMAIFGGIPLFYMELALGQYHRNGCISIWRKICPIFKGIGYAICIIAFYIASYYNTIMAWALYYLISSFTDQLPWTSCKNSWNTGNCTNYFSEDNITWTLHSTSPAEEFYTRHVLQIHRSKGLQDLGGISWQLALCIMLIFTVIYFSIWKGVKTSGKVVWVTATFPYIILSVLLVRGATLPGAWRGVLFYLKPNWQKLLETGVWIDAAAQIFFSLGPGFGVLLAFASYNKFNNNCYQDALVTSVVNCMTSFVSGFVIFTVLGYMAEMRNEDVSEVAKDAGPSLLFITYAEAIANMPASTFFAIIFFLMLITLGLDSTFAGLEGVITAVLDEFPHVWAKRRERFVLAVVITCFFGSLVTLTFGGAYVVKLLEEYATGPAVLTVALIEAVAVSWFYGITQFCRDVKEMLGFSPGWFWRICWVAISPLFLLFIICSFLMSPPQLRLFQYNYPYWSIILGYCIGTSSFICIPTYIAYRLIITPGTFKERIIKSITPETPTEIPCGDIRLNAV
T7 sequence (Q01959 whole entry): as the sequence (Q01959 whole entry) above
T10 sequence (P28223 whole entry): as the sequence (P28223 whole entry) above

For the compound `CC(N)Cc1ccc2c(c1)OCS2` (racemic) [II-16 (racemic)], the “Binding 5-HT2C (agonist radioligand), % competition” value on 5-HT2C (h) [1] turned out to be 98.4% competition. The “Binding NET (antagonist radioligand), % competition” value in test [2] was determined as 25.2% competition. On Dopamine transporter [3] (at 100 μM, read-out: Function DAT, inhibition of DAT), the inhibition (in general, the relative decrease from the control value, in per cent) at 100 µM was 99.1%. Further, the 50% inhibitory concentration (IC50) (usually the concentration needed to halve the response being measured) on Dopamine transporter [3] (blocking reuptake of DA, read-out: Function DAT Estimated IC50) is approximately 1000 nM; in [4] (blocking reuptake of NE, read-out: Function NET Estimated IC50) it was less than 1000 nM; on Serotonin transporter (blocking reuptake of 5-HT, read-out: Function SERT Estimated IC50), less than 200 nM. In addition, the “Function DAT (blocking reuptake of DA), efficacy in words” value on Dopamine transporter [3] (tested at 1, 10, 100 μM) is on record as “Full efficacy,”. In [4] (at 10 μM, read-out: Function NET, inhibition of NET), the inhibition at 10 µM is 93.5%. For the same compound, the “Function NET (blocking reuptake of NE), efficacy in words” value in [4] (tested at 1, 10, 100 μM) is recorded as “Near full efficacy,”. For the same compound, the EC50 – broadly, the concentration needed to bring the measured effect to its halfway point – at 5-HT2B (h) [5] (Gq-IP1, estimated from four concentrations, read-out: Function 5-HT2B Estimated EC50) is less than 500 nM; at 5-HT2C (h) [6] (Gq-IP1, estimated from four concentrations, read-out: Function 5-HT2C Estimated EC50), less than 800 nM; at 5-HT2A (h) [10] (IP-1, estimated from four concentrations, read-out: Function 5-HT2A Estimated EC50), 2500 nM. Further, at 5-HT2B (h) [5] (at 1 μM, relative to 5-HT, read-out: Function 5-HT2B EMAX), the maximal effect (Emax) (in general, the size of the effect at its maximum, as opposed to the concentration needed) at 1 µM amounted to 100%. Besides, on 5-HT2B (h) [5] (tested at 1, 3, 10, 100 μM), the “Function 5-HT2B (Gq-IP1, efficacy relative to 5-HT), agonist type” value is reported as “Full agonist -”. Moreover, the maximal effect (Emax) at 10 µM on 5-HT2C (h) [6] (at 10 μM, relative to 5-HT, read-out: Function 5-HT2C EMAX) was determined as 99.3%; at 5-HT2A (h) [10] (at 10 μM, relative to 5-HT, read-out: Function 5-HT2A EMAX), 89.8%. Moreover, the “Function 5-HT2C (Gq-IP1, efficacy relative to 5-HT), agonist type” value at 5-HT2C (h) [6] (tested at 1, 3, 10, 100 μM) is on record as “Full agonist -”. Also, the “Binding 5-HT2A (agonist radioligand), % competition” value on 5-HT2A (h) [7] is listed as 94.4% competition. The “Binding DAT (antagonist radioligand), % competition” value on dopamine transporter (h) is listed as 15.7% competition. Further, the “Binding SERT (antagonist radioligand), % competition” value on 5-HT transporter (h) [8] was determined as 68.1% competition. Moreover, on Serotonin transporter (across dose range tested (1, 3, 10, 100 μM), read-out: Function SERT, inhibition of SERT), the inhibition at up to 100 µM lay within 95.3 to 106%. Moreover, the “Function SERT (blocking reuptake of 5-HT), efficacy in words” value on Serotonin transporter (tested at 1, 3, 10, 100 μM) was “Full efficacy,”. Besides, the “Binding 5-HT2B (agonist radioligand), % competition” value at 5-HT2B (h) [9] came out at 100.1% competition. In addition, the “Function 5-HT2A (IP-1, efficacy relative to 5-HT), agonist type” value on 5-HT2A (h) [10] (tested at 1, 3, 10, 100 μM) is “Nearly full agonist -”.
As to `COc1cc(CCN)cc(OC)c1OC` [Reference Compound 1, 3,4,5-trimethoxyphenethylamine], the Ki (commonly a measure of affinity in units of concentration, obtained from inhibition or displacement) at 5-HT2A receptor was 6300 nM.
As for `CNC(C)Cc1ccc2c(c1)OCO2` (centres unmarked) [MDMA, 3,4-methylenedioxymethamphetamine], the IC50 is not below 108 nM in test [11] (read-out: Function NET IC50, lower end of literature range); not above 6600 nM in [11] (read-out: Function NET IC50, upper end of literature range); not below 410 nM at Dopamine transporter [13] (read-out: Function DAT IC50, lower end of literature range); not above 17000 nM on Dopamine transporter [13] (read-out: Function DAT IC50, upper end of literature range). Moreover, the Ki was 7800 nM at 5-HT2A (h) [12], more than 10000 nM on 5-HT transporter (h) [14] and more than 10000 nM in test [15].
